Laboratory results: US20240336573A1, “COMPOUND FOR THE TREATMENT AND PROPHYLAXIS OF INFECTIOUS DISEASES” (Eberhard Karls Universität Tübingen Medizinische Fakultät, priority 2021, published 2024)

Tests used:
[1] = molecular target: SurA (Escherichia coli, UniProt P0ABZ6); experiment: Luciferase-based SurA activity assay at the ELF (primary screen P1, dose response C2); type: biochemical, E. coli
Excerpt: The biological function of SurA is to bind and to keep outer membrane proteins that have reached the periplasm in an unfolded but folding-competent state. The inventors' assay is based on this interaction and uses firefly Luciferase (fLuc) as a non-native substrate. […] This is exploited in the assay (FIG. 3). The loss of tertiary structure of fLuc leads to the exposure of binding sites for SurA. It is known that SurA binds selectively to a special group of substrates. These substrates have in common the specific patterns of hydrophobic amino acids that are highly enriched in the beta strands of integral outer membrane proteins. These motifs are present in OMPs of all Gram-negative bacteria and in fLuc as well. Upon mild heat treatment of fLuc and its subsequent partial unfolding, fLuc is accepted as a substrate by SurA. Of note, these intermediates served as reporter substrates to determine the activity of a […] folding chaperone. […] This interaction remains stable upon temperature reduction. Next, the temperature of the assay is reduced to room temperature and luciferase activity is subsequently measured by addition of Luciferin and ATP. In conditions without SurA, fLuc will refold into its active conformation resulting in a luminescence signal.
Of note, the SurA activity assay was performed similar at the ELF but with optimizations in regard of the higher throughput including the change of the plate format to 1536-wells. The SurA activity assay performed at the ELF contained the following steps (adapted from the QHL report provided by the ELF). First, SurA was thawed at RT and heat activated in a water bath. Next, the vial was taken out of the water bath and cooled down to RT for 30 min @ bench. Afterwards, the SurA concentration was adjusted in assay buffer to 2 μM. Noteworthy, the SurA solution was kept on ice. […] Finally, 2 μL substrate mix (180 μM Luciferin with 12 mM ATP) were added simultaneously to all wells using the Fluorometric Imaging Plate Reader (FLIPR) and the luminescence signal was measured immediately afterwards on the FLIPR (Gain 70,000). […]

[2] = Solubility estimate based on turbidity (OD600 nm); type: physicochemical
Excerpt: The evaluation of these shelf derivatives included an estimate of their solubility based on the turbidity (OD600 nm) as well as their activity in the primary assay (2.1), their KD (2.2), their MIC reduction of Vancomycin (2.5) and their cytotoxicity (2.6) (Table 4).

[3] = system: E. coli; experiment: Vancomycin MIC in presence of compound (strain not stated); type: cell-based; settings: in presence of 100 μM compound
Method: To test for the sensitizer properties of the compounds, the inventors then performed a sensitizer MIC assay. To this end, E. coli BW25113, E. coli JW2496-3, and E. coli ATCC 25922 inocula were prepared as described above. Each well of a 96-well plate was prefilled with a fixed compound concentration of 100 μM and a dilution series of Vancomycin ranging from […]. A sensitizing effect was defined as reduction of the MIC value of Vancomycin of the respective test strain.

[4] = system: E. coli BW25113, E. coli JW2496-3, E. coli ATCC 25922; experiment: Minimal inhibitory concentration assay (bactericidal/bacteriostatic assessment); type: cell-based; settings: dilution series 100-1.7 μM
Excerpt: The intended effect of a SurA inhibitor should be the induction of a disturbance of the outer membrane composition resulting in an increased susceptibility to antibiotic treatment. Of note, Vancomycin is typically not used to treat infections with Gram-negative bacteria, because it is excluded by the OM and not efficient at concentrations that could be achieved in patients. However, at appropriate dosing in vitro it can be used to detect outer membrane defects. For determining a potential sensitizing effect of Vancomycin treatment, the inventors first tested whether the compounds at hand were bactericidal per se. Therefore, the inventors performed a minimal inhibitory concentration (MIC) assay. To this end, 5 ml overnight cultures of E. coli BW25113 (Keio-Collection reference strain), E. coli JW2496-3 (Keio-Collection single gene knockout for bamB, which suffers from decreased outer membrane integrity) and E. coli ATCC 25922 (a reference strain recommended for antibiotic susceptibility testing) were grown in Mueller Hinton Broth, Cation adjusted (MHB-II). The next day, the OD was adjusted to obtain 1*10^8 CFU/ml using fresh MHB-II. Next, this bacterial solution was diluted 1:100 into 20 ml fresh MHB-II. 50 μl of this bacteria solution were then transferred into each well of a 96-well plate prefilled with 50 μl MHB-II supplemented with the desired compounds. The test plates for the bactericidal assessment contained dilution series of the compounds from 100-1.7 μM. Plates were sealed with a gas permeable membrane and incubated o/n at 37° C. in a humid chamber without shaking. After o/n incubation, bacterial growth was quantified by measuring the optical density at 600 nm wavelength in a multiplate reader. Compounds showing no growth inhibition at 100 μM were considered non-bactericidal. Of note, the bactericidal effect of Vancomycin was assessed similarly for each test strain using Vancomycin concentrations ranging from […]. This was done to identify a Vancomycin concentration at which the strains just managed to survive.

SurA, sequence (P0ABZ6 21-428): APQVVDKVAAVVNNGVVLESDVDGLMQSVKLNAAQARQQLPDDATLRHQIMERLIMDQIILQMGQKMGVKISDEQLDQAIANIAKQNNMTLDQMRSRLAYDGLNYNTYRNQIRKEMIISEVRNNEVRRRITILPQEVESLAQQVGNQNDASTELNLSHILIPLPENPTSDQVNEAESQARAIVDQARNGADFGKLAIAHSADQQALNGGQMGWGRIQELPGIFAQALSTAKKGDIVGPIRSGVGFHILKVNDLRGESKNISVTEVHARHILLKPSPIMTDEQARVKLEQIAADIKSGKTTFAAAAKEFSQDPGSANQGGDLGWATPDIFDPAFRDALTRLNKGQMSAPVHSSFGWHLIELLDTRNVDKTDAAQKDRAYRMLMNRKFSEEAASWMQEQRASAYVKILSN

SMILES: CN(C)c1ccc(-c2nc3cc(NC(=O)Cn4cc5ccccc5n4)ccc3[nH]2)cc1 [QHL-24]
- DRC (C2) pIC50 ([1]; 7 concentration steps 20 μM to 27.4 nM, n=2): 5.45
- Primary assay (P1) % Effect ([1]; ELF library screen, 1536-well): 151%
- Primary assay (P1) Z-score ([1]; ELF library screen, 1536-well): 191.97
- Solubility (in words) [2]: poor solubility
- MIC (Vanco, mg/ml) [3]: 0.256 mg/mL

SMILES: NC(=O)c1nc(Cc2ccc(OCC(=O)O)cc2)[nH]c1NC(=O)c1ccc(-c2ccccc2)cc1 [Compound 2a, 2-(4-((5-([1,1′-biphenyl]-4-carboxamido)-4-carbamoyl-1H-imidazol-2-yl)methyl)phenoxy)acetic acid]
- Bacteriostatic MIC Assay Result [4]: non-bacteriostatic
